Measurements as given in US20040072851A1, “Medicinal compositions for treating lower uropathy” (priority 2001, published 2004).
Where a name gives a salt, the structure may show the parent alone.

How the values were obtained:
[1] = system: patients suffering from lower urinary tract symptoms; experiment: Clinical test to patients suffering from lower urinary tract symptoms (twelve-week test); assay type: in vivo, human
Protocol: A clinical test was carried out under the following conditions using the patients suffering from lower urinary tract symptoms. Subjects: eighteen patients diagnosed as lower urinary tract symptoms, i.e. urinary disturbance without clear organic or neurological abnormality in lower urinary tract (15 males and 3 female, age: 57.2±14.2). Test drug and administering method: One capsule containing 0.2 mg of tamsulosin hydrochloride was orally administered once daily after breakfast for four weeks and, after that, the dose after 4 weeks was controlled in consideration of the following criterion, and the dose was orally administered once daily after breakfast. [table] Test period: twelve weeks (84 days)(4 weeks (28 days) for 8 males) Observed items: Evaluations and measurements were made for the following items before and after the administration. (1) Total Score for Subjective Symptoms Total scores for the following <1>˜<7>before and after the administration were obtained in the same way as in Test Example 1. <1>Feel of residual urine, <2>Urination within two hours, <3>Break of urinary stream, <4>Urgency, <5>Force of urinary stream, <6>Straining upon urination and <7>Frequency of urination at night. (2) QOL Index “How do you think if the present urinating state continues in future as well?” (3) Test on Functions <1>maximum urinary stream rate <2>average urinary stream rate

[2] = system: patients suffering from lower urinary tract symptoms; experiment: Clinical test to patients suffering from lower urinary tract symptoms (four-week test); assay type: in vivo, human; conditions: for Total score for subjective symptoms after the test: 0.2 mg capsule orally once daily after breakfast; for Changing Rate (%) of total score for subjective symptoms: 0.2 mg capsule orally once daily, after vs before the test
Protocol: A clinical test was carried out under the following conditions using the patients suffering from lower urinary tract symptoms. (cf. Chapter 1: Indexes for Evaluation of Prostatic Hypertrophy in “Guideline for Clinical Test for Urinary Disturbance” published by Iyaku Tosho Shuppan) Subjects: four patients diagnosed as lower urinary tract symptoms, i.e. urinary disturbance without clear organic or neurological abnormality in lower urinary tract (3 males and 1 female). Test drug and administering method: One capsule containing 0.2 mg of tamsulosin hydrochloride was orally administered once daily after breakfast. Test period: four weeks (28 days) Observed items: Evaluations and measurements were made for the following items before and after the administration. (1) Total Score for Subjective Symptoms Questioning was done to the patients for the following items and the total score was obtained. (2) QOL Index With regard to an index for quality of life (QOL), a questioning that “How do you think if the present urinary condition continues in future as well?” was done as a total diagnosis concerning the urinary disturbance and any of the following evaluations was collected.

neurogenic bladder = conditions: applicant's earlier filing PCT/JP99/03343; cited from earlier work
[3] = Female (n = 3), after 4 week, 0.2 mg/day orally
[4] = Female (n = 3), after 12 week, 0.2 mg/day for 4 weeks, then 0.2 or 0.4 mg/day orally
[5] = Total (n = 10), after 12 week, 0.2 mg/day for 4 weeks, then 0.2 or 0.4 mg/day orally
[6] = Total (n = 18), after 4 week, 0.2 mg/day orally
[7] = male (n = 7), after 12 week, 0.2 mg/day for 4 weeks, then 0.2 or 0.4 mg/day orally
[8] = male (n = 15), after 4 week, 0.2 mg/day orally
[9] = avg. of four patients, four weeks

CCOc1ccccc1OCCN[C@H](C)Cc1ccc(OC)c(S(N)(=O)=O)c1 [tamsulosin hydrochloride]
Changing Amt of Average urinary stream rate [1, 3]: +2.2 ± 1.8 ml/s | Changing Amt of Maximum urinary stream rate [1, 3]: +3.8 ± 1.9 ml/s | Changing Amt of QOL Index [1, 3]: −1.3 ± 1.2 | Changing Rate of Total score for subjective symptoms [1, 3]: −30.5 ± 16.9% | Changing Amt of Average urinary stream rate [1, 4]: +2.1 ± 2.8 ml/s | Changing Amt of Maximum urinary stream rate [1, 4]: +6.2 ± 6.0 ml/s | Changing Amt of QOL Index [1, 4]: −3.0 ± 1.7 | Changing Rate of Total score for subjective symptoms [1, 4]: −37.4 ± 26.8% | Changing Amt of Average urinary stream rate [1, 5]: +3.8 ± 2.5 ml/s | Changing Amt of Maximum urinary stream rate [1, 5]: +7.3 ± 4.6 ml/s | Changing Amt of QOL Index [1, 5]: −2.9 ± 1.7 | Changing Rate of Total score for subjective symptoms [1, 5]: −44.6 ± 32.1% | Changing Amt of Average urinary stream rate [1, 6]: +2.0 ± 3.3 ml/s | Changing Amt of Maximum urinary stream rate [1, 6]: +3.1 ± 6.7 ml/s | Changing Amt of QOL Index [1, 6]: −1.6 ± 1.7 | Changing Rate of Total score for subjective symptoms [1, 6]: −40.9 ± 25.2% | effective rate (Degree of Improvement as a whole is more than "Useful") ([1]; after 12 weeks, decided by Guideline for Clinical Test for Urinary Disturbance): 70.0% | Changing Amt of Average urinary stream rate [1, 7]: +4.6 ± 2.2 ml/s | Changing Amt of Maximum urinary stream rate [1, 7]: +7.8 ± 4.3 ml/s | Changing Amt of QOL Index [1, 7]: −2.9 ± 1.9 | Changing Rate of Total score for subjective symptoms [1, 7]: −47.0 ± 35.6% | Changing Amt of Average urinary stream rate [1, 8]: +1.9 ± 3.6 ml/s | Changing Amt of Maximum urinary stream rate [1, 8]: +2.9 ± 7.4 ml/s | Changing Amt of QOL Index [1, 8]: −1.6 ± 1.8 | Changing Rate of Total score for subjective symptoms [1, 8]: −43.0 ± 26.5% | Overall conclusion on efficacy (total score for subjective symptom, QOL index, test on functions) ([1]; twelve-week test): confirmed to be effective as a therapeutic agent for lower urinary tract symptoms | Total score for subjective symptoms after the test [2, 9]: 13.3 | Changing Rate (%) of total score for subjective symptoms [2, 9]: −40.8% | Improvement in QOL index ([2]; four patients, average, after vs before administration, four weeks): improvement of one point in average | QOL index, mean value after the administration ([2]; four patients, 0.2 mg orally once daily, four weeks, scale 0 (quite satisfactory) to 6 (quite unsatisfactory), before administration 4.8): 3.8 | Overall conclusion on efficacy (total score for subjective symptom, QOL index) ([2]; four-week test, 0.2 mg orally once daily): confirmed to be effective as a therapeutic agent for lower urinary tract symptoms | Total score for subjective symptoms after the test ([2]; patient four, four weeks): 13 | Changing Rate (%) of total score for subjective symptoms ([2]; patient four, four weeks): −48.0% | Total score for subjective symptoms after the test ([2]; patient one, four weeks): 11 | Changing Rate (%) of total score for subjective symptoms ([2]; patient one, four weeks): −26.7% | Total score for subjective symptoms after the test ([2]; patient three, four weeks): 20 | Changing Rate (%) of total score for subjective symptoms ([2]; patient three, four weeks): −23.1% | Total score for subjective symptoms after the test ([2]; patient two, four weeks): 9 | Changing Rate (%) of total score for subjective symptoms ([2]; patient two, four weeks): −65.4%

CCOc1ccccc1OCCN[C@H](C)Cc1ccc(OC)c(S(N)(=O)=O)c1 [tamsulosin]
Clinical efficacy for the therapy of neurogenic bladder (neurogenic bladder): clinically effectively for the therapy of neurogenic bladder
